Measured values reported in US10738007B2, “Amide compounds as kinase inhibitors, compositions and methods of treatment” (TRANSLATIONAL DRUG DEVELOPMENT, LLC, priority 2016, dated 2020).
Where two headings read alike, the source gives them in different places.

Assays:
ROCK2 = ROCK2 (Homo sapiens (Human), UniProt O75116); assay: ROCK2 kinase inhibition assay (peptide phosphorylation, LABCHIP 3000); assay type: biochemical; settings: 7 μM ATP, 2.5 nM ROCK2, 3 hours at 25° C.
Protocol: (§1) The peptide is phosphorylated by the protein kinase ROCK1 or ROCK2. The ROCK1 or ROCK2 enzyme, substrate, and cofactors (ATP and Mg^2+) are combined in a well of a microtiter plate and incubated for 3 hours at 25° C. in the presence or absence of an inhibitor compound. At the end of the incubation, the reaction is quenched by the addition of an EDTA-containing buffer. The substrate and product are separated and quantified electrophoretically using the microfluidic-based LABCHIP® 3000 Drug Discovery System from Caliper Life Sciences (Hopkinton, Mass.).
(§2) The components of the assay mixture are:
10 μM Sodium Orthovanadate
10 LM Beta-Glycerophosphate
(§3) 5 μM ATP (for ROCK1) or 7 μM ATP (for ROCK2)
3 nM ROCK1 or 2.5 nM ROCK2 enzyme
(§4) Substrate and product peptides present in each sample are separated electrophoretically using the LABCHIP® 3000 capillary electrophoresis instrument. […] Change in the relative fluorescence intensity of the substrate and product peaks is the parameter measured reflecting enzyme activity. Capillary electrophoregramms (RDA acquisition files) are analyzed using HTS Well Analyzer software (Caliper Life Sciences, Hopkinton, Mass.). The kinase activity in each sample is determined as the product to sum ratio (PSR): P/(S+P), where P is the peak height of the product peptide and S is the peak height of the substrate peptide. For each compound, enzyme activity is measured at various concentrations (12 concentrations of compound spaced by 3× dilution intervals). Negative control samples (0%-inhibition in the absence of inhibitor) and positive control samples (100%-inhibition in the presence of 20 mM EDTA) are assembled in replicates of four and are used to calculate %-inhibition values for each compound at each concentration. Percent inhibition (Pinh) is determined using the following equation: Pinh=(PSRO %−PSRinh)/(PSRO %−PSR100%)*100
(§5) where PSRinh is the product sum ratio in the presence of inhibitor, PSRO % is the average product sum ratio in the absence of inhibitor, and PSR100% is the average product sum ratio in 100%-inhibition control samples. The IC50 values of inhibitors are determined by fitting the inhibition curves (Pinh versus inhibitor concentration) by the 4-parameter sigmoidal dose-response model using XLfit 4 software (IBDS).

ROCK1 = ROCK1 (Homo sapiens (Human), UniProt Q13464); assay: ROCK1 kinase inhibition assay (peptide phosphorylation, LABCHIP 3000); assay type: biochemical; settings: 5 μM ATP, 3 nM ROCK1, 3 hours at 25° C.
ROCK1, sequence (Q13464 whole entry, species assumed): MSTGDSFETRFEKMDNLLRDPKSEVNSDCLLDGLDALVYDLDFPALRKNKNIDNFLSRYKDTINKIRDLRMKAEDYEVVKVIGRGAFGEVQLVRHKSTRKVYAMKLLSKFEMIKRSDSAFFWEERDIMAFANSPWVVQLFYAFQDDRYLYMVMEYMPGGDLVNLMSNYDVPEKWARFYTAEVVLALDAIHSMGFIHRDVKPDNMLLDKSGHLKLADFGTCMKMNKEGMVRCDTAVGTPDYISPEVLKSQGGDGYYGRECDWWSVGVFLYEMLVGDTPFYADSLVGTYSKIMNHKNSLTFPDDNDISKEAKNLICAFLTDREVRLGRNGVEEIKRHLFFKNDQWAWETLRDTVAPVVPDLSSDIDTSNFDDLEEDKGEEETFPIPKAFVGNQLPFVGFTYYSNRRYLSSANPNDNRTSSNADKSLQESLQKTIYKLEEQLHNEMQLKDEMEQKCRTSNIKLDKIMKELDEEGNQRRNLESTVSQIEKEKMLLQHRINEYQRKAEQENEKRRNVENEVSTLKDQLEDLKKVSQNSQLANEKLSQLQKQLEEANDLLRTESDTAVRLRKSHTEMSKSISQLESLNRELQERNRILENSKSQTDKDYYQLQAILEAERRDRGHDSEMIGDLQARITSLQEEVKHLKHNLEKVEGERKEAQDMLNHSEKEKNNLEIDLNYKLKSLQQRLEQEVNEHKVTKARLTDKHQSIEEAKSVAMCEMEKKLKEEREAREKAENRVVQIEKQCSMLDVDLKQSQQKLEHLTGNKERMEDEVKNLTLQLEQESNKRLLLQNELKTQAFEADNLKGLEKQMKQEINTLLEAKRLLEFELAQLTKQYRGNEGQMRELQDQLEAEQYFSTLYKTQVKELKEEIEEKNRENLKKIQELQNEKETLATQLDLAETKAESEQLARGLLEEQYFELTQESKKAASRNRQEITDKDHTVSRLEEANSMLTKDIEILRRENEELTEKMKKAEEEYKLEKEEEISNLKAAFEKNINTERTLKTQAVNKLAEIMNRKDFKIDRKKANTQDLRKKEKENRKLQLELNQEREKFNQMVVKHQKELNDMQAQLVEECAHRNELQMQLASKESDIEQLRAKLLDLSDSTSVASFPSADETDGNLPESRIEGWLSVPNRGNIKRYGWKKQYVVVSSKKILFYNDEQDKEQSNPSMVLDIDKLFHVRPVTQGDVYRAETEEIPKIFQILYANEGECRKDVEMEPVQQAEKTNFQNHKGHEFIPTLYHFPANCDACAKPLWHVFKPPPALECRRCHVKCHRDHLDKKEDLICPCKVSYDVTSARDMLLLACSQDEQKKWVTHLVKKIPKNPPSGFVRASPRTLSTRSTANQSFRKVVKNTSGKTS
Protocol: as §1, §2
10 μM Sodium Orthovanadate
10 LM Beta-Glycerophosphate
as §3
3 nM ROCK1 or 2.5 nM ROCK2 enzyme
as §4, §5

K562 cell line = assay: Cell viability assay ([…]-GLO), K562; assay type: cell-based; settings: K562 (does not express ITD-FLT3), 72 hours treatment
Protocol: Cell viability in the presence of varying concentrations of the above listed compounds at different time points was used to assess cytotoxicity and the effect of the compounds on cell proliferation.
Cell viability was measured by the […]-GlO® cell viability assay from Promega (Madison, Wis.). The […]-GlO Luminescent Cell Viability Assay is a homogeneous method to determine the number of viable cells in culture based on quantitation of the ATP present, which signals the presence of metabolically active cells. Following treatment, […]-GlO® is added to treatment wells and incubated at 37° C. Luminescence values were measured at using a Molecular Devices Spectramax microplate reader.
Cells were grown to 70% confluency, trypsinized, counted, and seeded in 96 well flat-bottom plates at a final concentration of 2.5×10^3-5×10^3 cells/well (Day 0). Cells were allowed to incubate in growth media for 24 hours. Treatment with the test agents or standard agents began on Day 1 and continued for 72 hours. At the 72-hour time point, treatment containing media was removed. Viable cell numbers were quantified by the […]-GLO® cell viability assay as described above. Results from these studies were used to calculate an IC50 value (concentration of drug that inhibits cell growth by 50 percent of control) for each compound.
For single agent and combination studies, data from each experiment was collected and expressed as % Cell Growth using the following calculation: % Cell Growth=(ftest/fvehicle)×100
Where ftest is the luminescence of the tested sample, and fvehicle is the luminescence of the vehicle in which the drug is dissolved. Dose response graphs and IC50 values were generated using Prism 6 software (GraphPad) using the following equation: Y=(Top−Bottom)/(1+10^((logIC50-X)−HillSlope))
Where X is the logarithm of the concentration and Y is the response. Y starts at the Bottom and goes to the Top with a sigmoid shape.
The experiments also evaluated the selectivity of the compounds for inhibiting growth of cancer cells carrying a mutation in the Flt3 gene. The MV411 cell line expresses the mutant allele of Flt3 with internal tandem duplications (ITD) of the gene. See Quentmeier et al., “FLT3 Mutations in Acute Myeloid Leukemia Cell Lines,” Leukemia 17(1), 2003, 120-124. […] See Grafone et al., “Monitoring of FLT3 Phosphorylation Status and Its Response to Drugs By Flow Cytometry in AML Blast Cells,” Hematol Oncol. 26(3), 2008, 159-166.

MV411 cell line = assay: Cell viability assay ([…]-GLO), MV411; assay type: cell-based; settings: for IC50: MV411 (ITD-FLT3+), 72 hours treatment; for FLT3-ITD+ Selectivity (K562/MV411): ratio K562/MV411
Protocol: Cell viability was measured by the […] -GlO® cell viability assay from Promega (Madison, Wis.). The […] -GlO Luminescent Cell Viability Assay is a homogeneous method to determine the number of viable cells in culture based on quantitation of the ATP present, which signals the presence of metabolically active cells. Following treatment, […] -GlO® is added to treatment wells and incubated at 37° C. Luminescence values were measured at using a Molecular Devices Spectramax microplate reader.

[1] = Pharmacokinetic activity in mice; assay type: in vivo; settings: for AUC(0-t): read-out: AUC0-8; for Vd: read-out: Vss
Protocol: Compounds were individually and accurately weighed out to produce a stock solution in Dimethyl-sulfoxide (DMSO) at a concentration of 2 mg/mL and stored at −20° C. From the stock solution, a working stock was prepared by diluting it in Methanol-Water 50:50 (v/v) at 20 μg/mL for calibration curve preparation and stored at 4° C. Standards used for quantitation and quality control samples (QCs) were prepared on the same day of sample processing using blank plasma obtained from non-treated mice. For each analyte, standards were prepared through serial dilutions of the working stock at concentrations of 0.1, 0.5, 1.0, 10, 50, 100, 500, and 1000 ng/mL; QCs were prepared at intermediate concentrations of 0.75, 7.5, 75, and 750 ng/mL. Plasma samples were stored at −80° C. until ready for analysis and then placed on ice for thawing. An aliquot of […] samples, standards, or QCs, were transferred into a 96-well extraction plate according to a pre-defined layout. An appropriate volume of Methanol-Formic Acid 99.9-0.1 containing internal standard (Verapamil at 25 ng/mL) was added to each well and the samples were extracted under vacuum. Eluent was then transferred into a LCMS plate for analysis using a suitable column for separation and MRM detection. Concentration of analytes was calculated based on the calibration curve and analyzed for pharmacokinetic parameters by using Non-compartmental analysis (NCA). Parameters such as Cmax, Tmax, half-life, AUC(0-last), AUC(0-∞), volume of distribution (Vss), and clearance (Cl/F) were reported.

ROCK2, sequence (O75116 whole entry, species assumed): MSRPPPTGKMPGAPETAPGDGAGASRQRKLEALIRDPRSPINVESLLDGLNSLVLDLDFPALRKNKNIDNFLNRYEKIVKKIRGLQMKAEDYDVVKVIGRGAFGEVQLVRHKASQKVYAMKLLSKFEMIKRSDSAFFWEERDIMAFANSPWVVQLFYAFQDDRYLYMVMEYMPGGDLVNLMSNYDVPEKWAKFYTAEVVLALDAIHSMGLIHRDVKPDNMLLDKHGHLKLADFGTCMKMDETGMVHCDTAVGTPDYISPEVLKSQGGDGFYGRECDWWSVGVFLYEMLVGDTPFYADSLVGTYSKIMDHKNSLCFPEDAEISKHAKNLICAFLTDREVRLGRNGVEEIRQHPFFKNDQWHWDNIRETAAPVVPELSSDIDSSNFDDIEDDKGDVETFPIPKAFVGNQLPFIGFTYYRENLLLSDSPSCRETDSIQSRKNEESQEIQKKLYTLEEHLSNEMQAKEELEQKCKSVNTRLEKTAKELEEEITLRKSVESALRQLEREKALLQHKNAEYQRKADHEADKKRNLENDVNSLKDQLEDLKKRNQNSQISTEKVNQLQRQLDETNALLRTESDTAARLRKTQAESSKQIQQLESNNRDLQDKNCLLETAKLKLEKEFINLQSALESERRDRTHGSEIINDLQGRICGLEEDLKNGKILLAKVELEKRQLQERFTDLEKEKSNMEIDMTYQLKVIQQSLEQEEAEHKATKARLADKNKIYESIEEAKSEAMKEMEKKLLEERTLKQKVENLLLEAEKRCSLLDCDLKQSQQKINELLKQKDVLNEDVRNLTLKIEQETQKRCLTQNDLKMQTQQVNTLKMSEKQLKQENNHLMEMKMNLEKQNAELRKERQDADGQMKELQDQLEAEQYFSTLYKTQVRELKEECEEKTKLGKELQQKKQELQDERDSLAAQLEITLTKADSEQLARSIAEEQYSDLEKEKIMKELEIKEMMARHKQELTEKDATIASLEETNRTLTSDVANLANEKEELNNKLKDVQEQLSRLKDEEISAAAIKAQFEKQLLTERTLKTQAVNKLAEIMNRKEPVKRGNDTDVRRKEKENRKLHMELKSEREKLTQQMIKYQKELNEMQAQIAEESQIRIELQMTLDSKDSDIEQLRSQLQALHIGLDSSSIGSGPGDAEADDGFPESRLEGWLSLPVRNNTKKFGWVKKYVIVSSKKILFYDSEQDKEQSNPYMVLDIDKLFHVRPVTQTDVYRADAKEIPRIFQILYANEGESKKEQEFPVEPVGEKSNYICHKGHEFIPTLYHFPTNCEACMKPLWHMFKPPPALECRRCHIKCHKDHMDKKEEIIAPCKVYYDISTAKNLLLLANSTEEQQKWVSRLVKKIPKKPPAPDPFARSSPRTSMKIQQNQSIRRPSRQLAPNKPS

Structure (SMILES)	IC50 (ROCK2) [nM]	IC50 (ROCK1) [nM]	IC50 (K562 cell line; Homo sapiens) [nM]	IC50 (MV411 cell line; Homo sapiens, MV4-11) [nM]	FLT3-ITD+ Selectivity (K562/MV411) (MV411 cell line)	further results
CN1CCn2nc(NC(=O)c3cccc(CNC(=O)c4ccc(-c5ccncc5)cc4)c3)cc2C1 [Compound 1]	6	11.6	> 100000	8900	>11	
CN1CCc2ccc(NC(=O)c3cccc(C(CO)NC(=O)c4ccc(-c5ccncc5)cc4)c3)cc2C1 (stereo not drawn) [Compound 2]	2.8	2.8				
O=C(COc1cccc(CNC(=O)c2ccc(-c3ccncc3)cc2)c1)NC1CC1 [Compound 3]	14.2	38.8	> 100000	2400	>42	
CN(C)CCNC(=O)COc1cccc(CNC(=O)c2ccc(-c3ccncc3)cc2)c1 [Compound 4]	18.9	56.1				
CC(C)NC(=O)c1cccc(CNC(=O)c2ccc(-c3ccncc3)cc2)c1 [Compound 5]	6.7	21.7	> 100000	1500	>68	
CN1CCc2ccc(NC(=O)c3cccc([C@@H](CO)NC(=O)c4ccc(-c5ccncc5)cc4)c3)cc2C1 [Compound 7]	1.5		20400	60	333	AUC % Extrap ([1]; IV - 1 mg/kg): 3.29%; Cl/F obs ([1]; IV - 1 mg/kg): 68.7 mL/min/kg; R-sq ([1]; IV - 1 mg/kg): 0.88; R-sq ([1]; PO - 5 mg/kg): 0.47; AUC(0-inf) ([1]; mouse, plasma, IV - 1 mg/kg): 243 ng·h/mL; C0 ([1]; mouse, plasma, IV - 1 mg/kg): 411 ng/mL; Cmax ([1]; mouse, plasma, IV - 1 mg/kg): 190 ng/mL; Tmax ([1]; mouse, plasma, IV - 1 mg/kg): 0.25 h; half-life ([1]; mouse, plasma, IV - 1 mg/kg): 6.43 h; AUC(0-t) ([1]; mouse, plasma, IV - 1 mg/kg): 235 ng·h/mL; Vd ([1]; mouse, plasma, IV - 1 mg/kg): 16.3 L/kg; Cmax ([1]; mouse, plasma, PO - 5 mg/kg): 5.3 ng/mL; Tmax ([1]; mouse, plasma, PO - 5 mg/kg): 1 h; AUC(0-t) ([1]; mouse, plasma, PO - 5 mg/kg): 81.6 ng·h/mL
O=C(NCC1CCCCC1)c1cccc([C@@H](CO)NC(=O)c2ccc(-c3ccncc3)cc2)c1 [Compound 21]	1	3.1	39000	2100	19	
CN(C)c1ccc(CNC(=O)c2cccc([C@@H](CO)NC(=O)c3ccc(-c4ccncc4)cc3)c2)cc1 [Compound 30]	1.5	2.9				
CN(C)c1cccc(CNC(=O)c2cccc([C@@H](CO)NC(=O)c3ccc(-c4ccncc4)cc3)c2)c1 [Compound 31]	1	2.1				
CCN(CC)C1CCC(NC(=O)c2cccc([C@@H](CO)NC(=O)c3ccc(-c4ccncc4)cc3)c2)CC1 (stereo partly drawn) [Compound 35]	1.2	1.6				
C[C@@H](NC(=O)c1ccc(-c2ccncc2)cc1)c1cccc(C(=O)NC2CCCC2)c1 [Compound 36]						AUC % Extrap ([1]; IV - 1 mg/kg): 0.35%; Cl/F obs ([1]; IV - 1 mg/kg): 2.67 mL/min/kg; R-sq ([1]; IV - 1 mg/kg): 0.72; AUC % Extrap ([1]; PO - 5 mg/kg): 0.33%; R-sq ([1]; PO - 5 mg/kg): 1.00; AUC(0-inf) ([1]; mouse, plasma, IV - 1 mg/kg): 6070 ng·h/mL; C0 ([1]; mouse, plasma, IV - 1 mg/kg): 5910 ng/mL; Cmax ([1]; mouse, plasma, IV - 1 mg/kg): 4340 ng/mL; Tmax ([1]; mouse, plasma, IV - 1 mg/kg): 0.25 h; half-life ([1]; mouse, plasma, IV - 1 mg/kg): 2.59 h; AUC(0-t) ([1]; mouse, plasma, IV - 1 mg/kg): 5850 ng·h/mL; Vd ([1]; mouse, plasma, IV - 1 mg/kg): 0.27 L/kg; AUC(0-inf) ([1]; mouse, plasma, PO - 5 mg/kg): 10500 ng·h/mL; CL/F ([1]; mouse, plasma, PO - 5 mg/kg): 8 mL/min/kg; Cmax ([1]; mouse, plasma, PO - 5 mg/kg): 2500 ng/mL; Tmax ([1]; mouse, plasma, PO - 5 mg/kg): 1 h; half-life ([1]; mouse, plasma, PO - 5 mg/kg): 2.96 h; bioavailability ([1]; mouse, plasma, PO - 5 mg/kg vs IV - 1 mg/kg): 34.6%; AUC(0-t) ([1]; mouse, plasma, PO - 5 mg/kg): 8890 ng·h/mL; Vd/F ([1]; mouse, plasma, PO - 5 mg/kg, read-out: Vz/F obs): 2.04 L/kg
COc1ccc(NC(=O)c2cccc([C@@H](CO)NC(=O)c3ccc(-c4ccncc4)cc3)c2)cn1 [Compound 80]		1.7				
COC(=O)N1CCC(NC(=O)c2cccc([C@@H](CO)NC(=O)c3ccc(-c4ccncc4)cc3)c2)CC1 [Compound 90]	0.64				>5050	IC50 (K562 cell line): > 100000 nM; IC50 (MV411 cell line): 20 nM
COC(=O)N1CCC(CNC(=O)c2cccc([C@@H](CO)NC(=O)c3ccc(-c4ccncc4)cc3)c2)CC1 [Compound 91]	0.57				>4040	IC50 (K562 cell line): > 100000 nM; IC50 (MV411 cell line): 30 nM
O=C(NC1CCN(CC(F)(F)F)CC1)c1cccc([C@@H](CO)NC(=O)c2ccc(-c3ccncc3)cc2)c1 [Compound 92]	0.68				>3061	IC50 (K562 cell line): > 100000 nM; IC50 (MV411 cell line): 30 nM
COc1ccc(NC(=O)c2cccc([C@@H](CO)NC(=O)c3ccc(-c4ccncc4)cc3)c2)cn1 [Compound 93]	0.51		85000	90	935	
O=C(NC1CCCC1)c1cccc([C@@H](CO)NC(=O)c2ccc(-c3cn[nH]c3)cc2F)c1 [Compound 95]	2.34		76000	890	86	
Cc1cc(-c2cn[nH]c2)ccc1C(=O)N[C@H](CO)c1cccc(C(=O)NC2CCCC2)c1 [Compound 96]	53.1		101000	710	142	
C[C@@H](NC(=O)c1ccc(-c2cn[nH]c2)cc1)c1cccc(C(=O)NC2CCCC2)c1 [Compound 97]	0.74		17000	110	154	
CCOc1cc(-c2cn[nH]c2)ccc1C(=O)N[C@H](CO)c1cccc(C(=O)NC2CCCC2)c1 [Compound 101]	0.25		15000	80	194	
COc1cc(-c2ccncc2)ccc1C(=O)N[C@H](CO)c1cccc(C(=O)NC2CCCC2)c1 [Compound 110]	2.5		> 100000	410	246	
